Active and inactive are the calls of the source.
Key:
[1] = target: T1, Lysosomal acid glucosylceramidase (Homo sapiens, UniProt P04062); experiment: Dose response cell-based high throughput screening assay to identify enhancers of beta-glucosidase activity. [Related pubchem assays: 784 ]; format: functional
T1 sequence (P04062 whole entry): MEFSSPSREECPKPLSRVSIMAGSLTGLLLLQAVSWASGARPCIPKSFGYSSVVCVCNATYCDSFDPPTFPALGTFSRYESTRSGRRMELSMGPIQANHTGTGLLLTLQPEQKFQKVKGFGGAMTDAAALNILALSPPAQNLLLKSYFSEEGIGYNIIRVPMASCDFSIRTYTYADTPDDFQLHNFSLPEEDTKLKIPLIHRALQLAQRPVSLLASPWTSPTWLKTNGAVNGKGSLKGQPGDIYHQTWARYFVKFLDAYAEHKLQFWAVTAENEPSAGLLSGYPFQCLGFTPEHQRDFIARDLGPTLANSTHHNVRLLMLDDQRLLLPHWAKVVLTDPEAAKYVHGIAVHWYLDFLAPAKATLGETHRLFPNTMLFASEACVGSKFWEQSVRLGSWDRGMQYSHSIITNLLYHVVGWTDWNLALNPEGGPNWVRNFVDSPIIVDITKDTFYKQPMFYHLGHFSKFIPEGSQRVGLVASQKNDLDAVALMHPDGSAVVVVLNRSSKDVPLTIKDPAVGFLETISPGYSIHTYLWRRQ

[2] = target: T2, Polyadenylate-binding protein 1 (Homo sapiens, UniProt P11940); experiment: MLLE binding blockers, Cy5 peptide tracer – biochemical, fluorescence polarization, Cy5-PAM2 peptide, secondary, miRNA deadenylation inhibitor project, dose response (AID 602260); format: functional; conditions: read-out: IC50_Mean
[3] = target: T2, Polyadenylate-binding protein 1; experiment: MLLE domain peptide-binding blockers, IC50 – biochemical, fluorescence polarization, FITC-PAM2 peptide, dose response (AID 602259); format: functional; conditions: read-out: IC50_Mean
[4] = cells
[5] = viability of uninfected HEp-2 cells – cell-based, HTS, cytotoxicity control for RSV inhibitor project, dose response (AID 2410); format: functional; conditions: human respiratory syncytial virus
[6] = target: T3, Epstein-Barr nuclear antigen 1 (Epstein-Barr virus (strain B95-8) (HHV-4) (Human herpesvirus 4), UniProt P03211); experiment: inhibition of EBV nuclear antigen 1 DNA binding – biochemical, fluorescence polarization, 1536-well, dose response (AID 2381); design: species or system human gammaherpesvirus 4;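 note: fluorescence polarization of a Cy5 DNA probe bound by EBNA-1 protein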
T3 sequence (P03211 whole entry): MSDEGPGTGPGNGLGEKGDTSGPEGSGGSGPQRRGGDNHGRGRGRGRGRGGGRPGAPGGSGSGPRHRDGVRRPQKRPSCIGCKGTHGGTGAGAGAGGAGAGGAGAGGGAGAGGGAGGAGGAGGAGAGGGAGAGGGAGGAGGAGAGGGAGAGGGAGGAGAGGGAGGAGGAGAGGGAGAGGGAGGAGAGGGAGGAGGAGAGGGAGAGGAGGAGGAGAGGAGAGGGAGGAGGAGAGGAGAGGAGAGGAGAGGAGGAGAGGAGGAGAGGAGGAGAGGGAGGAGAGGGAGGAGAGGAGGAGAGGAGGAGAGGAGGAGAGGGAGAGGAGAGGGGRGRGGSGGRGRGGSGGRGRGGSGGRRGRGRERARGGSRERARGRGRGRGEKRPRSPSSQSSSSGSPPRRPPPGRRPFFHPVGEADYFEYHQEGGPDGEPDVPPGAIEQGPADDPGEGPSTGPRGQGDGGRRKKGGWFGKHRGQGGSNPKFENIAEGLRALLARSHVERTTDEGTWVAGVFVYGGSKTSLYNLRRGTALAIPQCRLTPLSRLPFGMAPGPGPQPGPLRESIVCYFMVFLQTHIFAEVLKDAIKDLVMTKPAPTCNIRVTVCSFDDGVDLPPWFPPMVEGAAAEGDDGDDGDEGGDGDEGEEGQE

[7] = target: T4, Lytic switch protein BZLF1 (Epstein-Barr virus (strain B95-8) (HHV-4) (Human herpesvirus 4), UniProt P03206); experiment: inhibition of BZLF1 ZTA DNA binding – biochemical, fluorescence polarization, Epstein-Barr virus, 1536-well, counter-screen for EBNA-1 inhibitor project, dose response (AID 2377); design: species or system human gammaherpesvirus 4;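 note: fluorescence polarization of Cy5-labelled ZRE DNA probe bound by purified Zta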
T4 sequence (P03206 whole entry): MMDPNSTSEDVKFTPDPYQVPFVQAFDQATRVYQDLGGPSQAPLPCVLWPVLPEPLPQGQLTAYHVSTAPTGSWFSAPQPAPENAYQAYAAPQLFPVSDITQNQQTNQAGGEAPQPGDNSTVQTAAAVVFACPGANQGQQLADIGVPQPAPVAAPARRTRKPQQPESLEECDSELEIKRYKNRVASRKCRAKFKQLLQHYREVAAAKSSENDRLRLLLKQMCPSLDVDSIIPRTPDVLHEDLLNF

[8] = target: T5, Hexokinase HKDC1 (Homo sapiens, UniProt Q2TB90); experiment: inhibition of HKDC1 glucose phosphorylation – biochemical, W721R variant, dose response (AID 504729); format: functional
T5 sequence (Q2TB90 whole entry): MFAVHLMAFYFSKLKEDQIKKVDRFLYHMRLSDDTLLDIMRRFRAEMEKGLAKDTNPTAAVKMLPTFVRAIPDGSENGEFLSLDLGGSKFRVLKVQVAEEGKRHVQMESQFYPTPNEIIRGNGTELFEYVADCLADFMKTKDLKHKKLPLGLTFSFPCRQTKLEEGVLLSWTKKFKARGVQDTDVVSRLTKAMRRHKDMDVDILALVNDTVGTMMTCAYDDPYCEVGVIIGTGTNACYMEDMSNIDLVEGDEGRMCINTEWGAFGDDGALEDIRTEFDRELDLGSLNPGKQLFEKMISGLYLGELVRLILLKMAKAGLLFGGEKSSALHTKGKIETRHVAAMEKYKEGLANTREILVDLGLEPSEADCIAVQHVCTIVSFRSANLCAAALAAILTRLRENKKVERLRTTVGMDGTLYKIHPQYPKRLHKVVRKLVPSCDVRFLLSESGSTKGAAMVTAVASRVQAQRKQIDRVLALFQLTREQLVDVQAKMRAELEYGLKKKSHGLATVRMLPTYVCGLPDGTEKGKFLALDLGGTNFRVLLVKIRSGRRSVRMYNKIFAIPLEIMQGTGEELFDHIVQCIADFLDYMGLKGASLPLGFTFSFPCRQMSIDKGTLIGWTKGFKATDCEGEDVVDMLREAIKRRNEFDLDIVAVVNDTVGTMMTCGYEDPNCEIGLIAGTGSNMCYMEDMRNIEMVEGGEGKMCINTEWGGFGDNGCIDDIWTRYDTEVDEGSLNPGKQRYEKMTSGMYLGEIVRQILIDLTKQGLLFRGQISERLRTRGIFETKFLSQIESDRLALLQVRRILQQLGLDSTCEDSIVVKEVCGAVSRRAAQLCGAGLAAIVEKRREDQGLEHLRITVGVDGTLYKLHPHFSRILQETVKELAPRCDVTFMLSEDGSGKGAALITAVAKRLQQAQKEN

[9] = test system: P388/ADR; experiment: cells; format: functional; conditions: Mus musculus
[10] = test system: SN12K1; experiment: cells; format: functional; conditions: Homo sapiens
[11] = test system: P388; experiment: cells; format: functional; conditions: Mus musculus
[12] = target: Cytochrome P450 3A4 (Homo sapiens, UniProt P08684); conditions: Potency;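 note: confirmatory qHTS run detecting inhibitors and substrates of CYP3A4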
Chain of Cytochrome P450 3A4 (P08684 whole entry): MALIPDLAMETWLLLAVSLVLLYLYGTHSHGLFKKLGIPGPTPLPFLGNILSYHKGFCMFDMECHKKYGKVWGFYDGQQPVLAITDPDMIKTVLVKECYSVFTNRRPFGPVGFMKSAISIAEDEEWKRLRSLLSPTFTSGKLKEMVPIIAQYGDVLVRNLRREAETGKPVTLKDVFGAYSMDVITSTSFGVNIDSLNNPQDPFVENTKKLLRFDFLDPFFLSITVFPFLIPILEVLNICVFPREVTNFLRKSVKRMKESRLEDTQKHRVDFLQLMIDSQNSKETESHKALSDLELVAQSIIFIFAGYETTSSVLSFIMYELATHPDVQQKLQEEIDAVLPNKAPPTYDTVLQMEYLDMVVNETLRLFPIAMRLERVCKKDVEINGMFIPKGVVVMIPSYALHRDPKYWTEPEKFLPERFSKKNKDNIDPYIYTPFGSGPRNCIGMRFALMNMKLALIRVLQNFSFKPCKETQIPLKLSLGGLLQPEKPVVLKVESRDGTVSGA

T2 sequence (P11940 whole entry, the tested form may be a part): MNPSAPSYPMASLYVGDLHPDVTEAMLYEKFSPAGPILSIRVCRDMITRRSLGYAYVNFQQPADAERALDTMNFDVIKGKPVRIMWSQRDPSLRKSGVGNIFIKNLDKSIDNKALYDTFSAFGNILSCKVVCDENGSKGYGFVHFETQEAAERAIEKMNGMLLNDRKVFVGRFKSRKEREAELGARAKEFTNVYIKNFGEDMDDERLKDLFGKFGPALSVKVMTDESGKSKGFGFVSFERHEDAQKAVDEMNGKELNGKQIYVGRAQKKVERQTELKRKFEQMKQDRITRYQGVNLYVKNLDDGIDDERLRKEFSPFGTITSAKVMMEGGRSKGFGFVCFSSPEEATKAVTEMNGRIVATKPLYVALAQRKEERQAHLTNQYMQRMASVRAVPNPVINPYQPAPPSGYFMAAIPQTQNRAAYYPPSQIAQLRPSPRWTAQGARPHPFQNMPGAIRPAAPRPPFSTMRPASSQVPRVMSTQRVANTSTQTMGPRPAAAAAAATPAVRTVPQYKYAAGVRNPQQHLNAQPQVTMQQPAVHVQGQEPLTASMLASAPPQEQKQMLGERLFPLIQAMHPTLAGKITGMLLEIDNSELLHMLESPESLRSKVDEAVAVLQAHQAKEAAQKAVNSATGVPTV

O=C(CCNS(=O)(=O)c1cccc2nsnc12)NC1CCN(Cc2ccccc2)CC1
EC50 [1]: > 50 µM (not active)

c1coc(-c2nn3c(Cn4nnc5ccccc54)nnc3s2)c1
IC50 [2]: > 66 µM (inactive) | IC50 [3]: > 66 µM (inactive) | IC50 [4]: 8.25 µM (active)

COc1cc2c(cc1NC(=O)Nc1ccccc1)oc1ccccc12
CC50 [5]: 13.2 µM (active) | IC50 [4]: 30.4 µM (active)

Cc1ccccc1CS(=O)(=O)Cc1ccc(C(=O)NCc2ccco2)o1
EC50 [1]: > 50 µM (not active)

O=c1c2sccc2n(Cc2cc(=O)n3ccccc3n2)c(=O)n1-c1ccccc1
IC50 [4]: 14 µM (active)

Nc1c(C(=O)Nc2ccccc2)sc2nc(-c3ccco3)ccc12
IC50 [6]: 6.43 µM (active) | IC50 [7]: > 111 µM (not active)

COC1=CC(=O)C=C(OC)C1=O [2,6-DIMETHOXYQUINONE]
IC50 [8]: 2.49 µM (active) | GI50 [9]: 457 nM (active) | GI50 [10]: 7.38 µM (inactive) | GI50 [11]: 401 nM (active) | AC50 [12]: 25.1 µM (inconclusive)

Reference: ChEMBL document CHEMBL1201862, “PubChem BioAssay data set” (2004)
